Experimental data published in PubChem BioAssay AID1421 (Emory University Molecular Libraries Screening Center, 2008).
Calls of active or inactive are those of the source. The rule behind the calls is not given here.

Molecular target: Prostaglandin E2 receptor EP2 subtype (Homo sapiens) (UniProt P43116)
Assay: compounds shifting PGE2 potency at EP2 – cell-based, human EP2, PGE2 EC50 shift, dose response (AID 1421)
Settings: EP2-expressing cells, PGE2 EC50 shift by compound

Prostaglandin E2 receptor EP2 subtype (Homo sapiens), sequence (P43116 whole entry, looked up): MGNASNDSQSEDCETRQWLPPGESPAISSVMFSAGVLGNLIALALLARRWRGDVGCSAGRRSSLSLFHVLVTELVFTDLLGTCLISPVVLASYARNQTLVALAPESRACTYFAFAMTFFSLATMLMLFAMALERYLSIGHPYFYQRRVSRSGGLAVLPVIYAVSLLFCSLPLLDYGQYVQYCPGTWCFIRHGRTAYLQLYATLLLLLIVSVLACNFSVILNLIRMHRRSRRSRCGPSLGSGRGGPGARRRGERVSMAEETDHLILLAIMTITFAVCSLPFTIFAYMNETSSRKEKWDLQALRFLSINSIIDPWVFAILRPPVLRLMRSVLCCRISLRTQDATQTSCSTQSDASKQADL

With `COCCn1c(SC(C(=O)Nc2cc(C)ccc2OC)c2ccccc2)nnc1-c1ccc(Cl)cc1` (stereo not given) the outcome was “active”.
`CCc1ccccc1NC(=O)/C(=C/c1ccccc1)c1ccccc1` was tested, and the outcome was “active”.
For `O=C(O)COc1ccc(/C=C/c2ccc3cccc([N+](=O)[O-])c3n2)cc1`, the outcome was “active”.
In the case of `COc1ccc(-c2cc(C(F)(F)F)nc(N3CCOCC3)n2)cc1OC`, the outcome is reported as “active”.
With `CCOC(=O)C(C)Sc1nc(-c2ccccc2)nc2ccccc12` (stereo not given) the outcome was “active”.
For `FC(F)(F)c1cc(-c2ccccc2)nc(N2CCOCC2)n1`, the outcome was “active”.
`CCOC(=O)c1cc(C)sc1NC(=O)c1ccc(Cl)s1` was tested, and the outcome was “active”.
`CCOC(=O)c1c(NC(=O)c2ccco2)sc2c1CCCCC2` was tested, and the outcome was “active”.
In the case of `CC(C)NC(=O)NC(=O)CSc1nnc(COc2ccccc2F)n1C(C)C1CC2CCC1C2` (stereo not given), the outcome is reported as “active”.
With `O=C(N/N=C/c1cccc(F)c1)NC1CCCCC1` the outcome was “active”.
`OC(COc1ccccc1)Cn1c2ccccc2c2ccccc21` (stereo not given) was tested, and the outcome was “active”.

Same assay, conditions: EP2-expressing cells, PGE2 EC50 shift by compound; measured here: PGE2 EC50 at 6.7 uM compound

In order of rising PGE2 EC50 with compound:
1. Cc1ccc2nc(-c3ccncc3)cc(-c3ccccc3)c2c1  0.31 nM
2. O=c1cc(N2CCCCC2)c(-c2ccccc2)nn1Cc1cccc(Cl)c1  0.32 nM
3. O=P(c1ccccc1)(c1ccccc1)c1nc(-c2ccccc2)oc1NCc1ccccc1  0.33 nM
4. Cc1ccccc1Nc1cccc2nonc12  0.64 nM
5. Cn1cc(C2=C(c3ccc(Cl)cc3Cl)C(=O)NC2=O)c2ccccc21  0.68 nM
6. CC(C)=CCC/C(C)=C/CC/C(C)=C/CSc1ccccc1C(=O)O  0.69 nM
7. CSc1nc(Sc2ccccc2Cl)c2ccccc2n1  0.7 nM
8. O=C(C(c1ccccc1)c1ccccc1)N1CCCc2ccccc21  0.71 nM
9. CC(C)CCn1c(Oc2ccc(Cl)cc2)nc2c1c(=O)n(C)c(=O)n2C  0.72 nM
10. CCOC(=O)c1cc(C)sc1NC(=O)c1ccc(Cl)s1  0.73 nM
11. O=C(CSCc1cccc(Cl)c1)Nc1ccccc1-c1ccccc1  0.74 nM
12. CCC(=O)O[C@H]1CCC2C3CCC4=CC(=O)CC[C@]4(C)C3CC[C@@]21C (stereo not given in full)  0.76 nM
13. CCSc1nnc(-c2ccc(Cl)cc2)c2ccccc12  0.76 nM
14. Cc1nc(NC(C)c2ccccc2)c2c3c(sc2n1)CCC3 (stereo not given)  0.78 nM
15. CCCCc1ccc(-n2c(Cc3cccs3)n[nH]c2=S)cc1  0.8 nM
16. Cc1cc(OCC(=O)OC(C)C)c2c3c(c(=O)oc2c1)CCCC3  0.81 nM
17. C=CCOc1c(Br)cc(/C=N/n2c(CC)n[nH]c2=S)cc1Br  0.81 nM
18. CC(C)(C)c1nc2ccccc2c(=O)n1N1C(=O)c2ccccc2C1=O  0.82 nM
19. O=c1oc2c3c4c(cc2c(C(F)(F)F)c1CCN1CCOCC1)CCCN4CCC3  0.83 nM
20. Cc1ccc(S(=O)(=O)n2c3ccc(F)cc3c3nc(C)sc32)cc1  0.84 nM
21. COC[C@H]1OC(=O)c2coc3c2[C@@]1(C)C1=C(C3=O)C2CCC(=O)[C@@]2(C)C[C@H]1OC(C)=O (stereo not given in full)  0.84 nM
22. CCOC(=O)/C(N=Nc1c(Br)cc(Br)cc1Br)=C(\C)O  0.84 nM
23. CC(/C=C1\SC(=S)N(C(C(=O)O)C(C)C)C1=O)=C\c1ccccc1 (stereo not given)  0.86 nM
24. CSc1nc2ccccc2c(=O)n1Cc1ccc(F)cc1  0.87 nM
25. O=C(Nc1cc(S(=O)(=O)Nc2ccc(Cl)cc2)ccc1N1CCCCC1)c1ccc(F)cc1Cl  0.87 nM
26. CCOC(=O)c1c(NC(=O)c2ccco2)sc2c1CCCCC2  0.87 nM
27. O=C(Nc1ccccc1N1CCCCC1)c1cccc([N+](=O)[O-])c1  0.9 nM
28. CC(C)c1ccc2c(c1)CCC1C(C)(C(N)=O)CCCC21C (stereo not given)  0.9 nM
29. CCOC(=O)c1c(NC(=O)CN2CCCCC2)sc2c1CCN(C(=O)OCC)C2  0.9 nM
30. CCOC(=O)c1c(NC(=O)c2c(Br)cnn2CC)sc(C)c1C  0.9 nM
31. Cc1ccc(-c2nn3c(C)nnc3s2)cc1NCc1c(F)cccc1Cl  0.91 nM
32. CCOC(=O)C(C)Sc1nc(-c2ccccc2)nc2ccccc12 (stereo not given)  0.92 nM
33. Cc1ccc(/C=N/N(Cc2ccccc2)c2ccccc2)o1  0.92 nM
34. CC(C)CCn1c(N2CCN(c3cccc(Cl)c3)CC2)nc2c1c(=O)[nH]c(=O)n2C  0.93 nM
35. CC(C)(C)N(Cc1ccccc1)C(=O)c1ccc(Br)o1  0.94 nM
36. CCSc1ncnc2sc3c(c12)CCC3  0.94 nM
37. O=C(Nc1ccccc1N1CCCCC1)c1cccc(F)c1  0.95 nM
38. Cc1ccc2c(c1)N(Cc1cccc(Cl)c1)C(=O)c1cccnc1O2  0.95 nM
39. O=C(O)/C=C/C(O)c1ccc(Cl)cc1 (stereo not given)  0.97 nM
40. CC(=O)N(c1cccc(Br)c1)C1C=CS(=O)(=O)C1 (stereo not given)  0.98 nM
41. CCn1c2ccc(Cl)cc2c2nc3ccccc3nc21  0.98 nM
42. CCC(=O)Oc1ccc2c(C)cc(=O)oc2c1C(=O)c1ccccc1  1 nM
43. Cc1ccccc1NC1=C(C(=O)c2ccccc2)N(C)S(=O)(=O)c2ccccc21  1.01 nM
44. Cc1cccc(C)c1OCc1nnc(SCC(=O)Nc2nccs2)n1-c1ccccc1  1.01 nM
45. Cc1ccc(N(CC(=O)N/N=C/c2ccc(OC3CSC3)cc2)S(=O)(=O)c2ccccc2)cc1  1.01 nM
46. O=C(N=C1SCC(=O)N1c1ccccc1Cl)c1ccccc1  1.03 nM
47. COc1ccc(-c2nc3ccccc3n2Cc2ccccc2)cc1  1.05 nM
48. COC(=O)c1sc2[nH]c(=S)n(N)c(=O)c2c1C  1.06 nM
49. CC(C)NC(=O)NC(=O)CSc1nnc(COc2ccccc2F)n1C(C)C1CC2CCC1C2 (stereo not given)  1.06 nM
50. CSc1ccccc1NC(=O)COc1ccc(Cl)cc1C  1.06 nM
51. CC1=NN(c2ccc(S(=O)(=O)O)cc2)C(=O)/C1=C\c1ccc(Cl)cc1  1.07 nM
52. COc1c2c(cc3occ(-c4ccc5c(c4)OCO5)c(=O)c13)OC(C)(C)C=C2  1.07 nM
53. CCOP(=O)(OCC)c1nc(-c2ccc(F)cc2)oc1NCc1ccccc1  1.09 nM
54. Cc1nc2c(-c3ccccc3)c(C)nn2c(C)c1CCC(=O)N1CCOCC1  1.09 nM
55. O=C(N/N=C/c1cccc(F)c1)NC1CCCCC1  1.1 nM
56. Cc1cc([N+](=O)[O-])c(C)c(Br)c1C  1.11 nM
57. CCc1ccccc1NC(=O)/C(=C/c1ccccc1)c1ccccc1  1.14 nM
58. CSc1nnc(-c2cc3c(s2)-c2ccccc2CC3)o1  1.15 nM
59. c1cncc(-c2nc(N3CCOCC3)c3c4c(sc3n2)CCC4)c1  1.15 nM
60. Cc1nn2c(N3CCN(C(=O)c4ccco4)CC3)cc(C(C)(C)C)nc2c1-c1ccccc1  1.15 nM
61. CCOC(=O)CSc1nc(Cc2ccccc2)nc2ccccc12  1.15 nM
62. Cc1cccc(-n2c(CCc3ccccc3)nnc2SCC(=O)c2ccccc2)c1  1.16 nM
63. O=c1c2ccccc2c(=O)n(Cc2ccccc2)n1Cc1ccccc1  1.16 nM
64. Cc1ccc(OCc2n[nH]c(=S)n2Cc2ccccc2)cc1  1.17 nM
65. Cc1ccc(NCc2n[nH]c(=S)n2Cc2ccccc2)cc1Cl  1.2 nM
66. Cn1c(/C=C/N(Cc2ccccc2)c2ccccc2)c([N+](=O)[O-])c(=O)n(C)c1=O  1.21 nM
67. Cc1noc(C)c1CSc1ncnc2sc3c(c12)CCCCC3  1.22 nM
68. Cc1ccc(C2CC2c2n[nH]c(=S)n2-c2ccc(Cl)cc2)cc1 (stereo not given)  1.23 nM
69. Cc1cc2ccccn2c1C(=O)c1ccc(Cl)cc1  1.24 nM
70. CCC1Oc2ccc(C)cc2N(Cc2cccc(C)c2)C1=O (stereo not given)  1.24 nM
71. C=CCN1C(=O)/C(=C/c2ccc(O)c(OC)c2)S/C1=N/c1nccs1  1.27 nM
72. CCc1cc(-c2[nH]ncc2-c2ccc3c(c2)OCO3)c(O)cc1O  1.31 nM
73. Cc1ccc(S(=O)(=O)c2c(C)cc(C)nc2N2CCCCC2)cc1  1.31 nM
74. Cc1sc2ncnc(SCc3ccco3)c2c1C  1.33 nM
75. S=c1[nH]nc(-c2ccc(Br)o2)n1Cc1ccccc1  1.34 nM
76. CCC1(C)Cc2ccccc2-c2nc3n(c(=O)c21)CCS3 (stereo not given)  1.37 nM
77. NC(=O)CSc1nnc(-c2cccc(S(=O)(=O)N3CCOCC3)c2)n1C1CCCCCC1  1.37 nM
78. Cc1noc(C)c1CSc1ncnc2sc(C)c(C)c12  1.38 nM
79. OC(COc1ccccc1)Cn1c2ccccc2c2ccccc21 (stereo not given)  1.4 nM
80. O=C(COc1ccccc1)Nc1ccccc1Oc1ccccc1  1.41 nM
81. COCCn1c(SC(C(=O)Nc2cc(C)ccc2OC)c2ccccc2)nnc1-c1ccc(Cl)cc1 (stereo not given)  1.44 nM
82. CCCCOc1cc(C)nc(NCc2ccccc2)n1  1.47 nM
83. CCOc1cc(/C=N/NC(N)=O)ccc1OC(=O)c1ccc(C)cc1  1.52 nM
84. COc1ccc(-c2cc(C(F)(F)F)nc(N3CCOCC3)n2)cc1OC  1.53 nM
85. CCc1ccccc1NC(=O)/C(=C/c1ccco1)c1ccccc1  1.58 nM
86. FC(F)(F)c1cc(-c2ccccc2)nc(N2CCOCC2)n1  1.59 nM
87. O=C(OCC(=O)N1N=C(c2ccc(Cl)cc2)CC1c1ccco1)c1ccco1 (stereo not given)  1.63 nM
88. O=c1[nH]c2ccc(Cl)cc2c(-c2ccccc2)c1N1CCN(c2ccccn2)CC1  1.64 nM
89. CCC(C)(C)n1nnnc1C(c1ccncc1)N1CCC(Cc2ccccc2)CC1 (stereo not given)  1.85 nM
90. COc1ccc(-c2c(C(C)=O)c(C)nc3sc4c(c23)NC(c2ccccc2)NC4=O)cc1 (stereo not given)  1.87 nM
91. Cc1ccc(-n2cc(-c3ccccc3)c3c(N4CCOCC4)ncnc32)cc1  1.99 nM
92. O=C(O)COc1ccc(/C=C/c2ccc3cccc([N+](=O)[O-])c3n2)cc1  2.11 nM
93. COC(=O)c1c(-c2ccc(F)cc2)csc1NC(=O)C1CCCO1 (stereo not given)  2.48 nM
94. COc1cc2c(cc1OC)-c1cc(Nc3ccc4c(c3)OCCO4)nc(=O)n1CC2  2.5 nM
95. Oc1ccc(/C=N/N2CCN(C3c4ccccc4-c4ccccc43)CC2)c(O)c1  2.52 nM
96. O=C(Cc1c(F)cccc1Cl)Nc1ccccc1N1CCCCC1  2.55 nM
97. Cc1cc(C)n(-c2cc(-c3ccccc3)nc(C)n2)n1  2.6 nM
98. O=C(c1ccccc1)C1CN(Cc2ccccc2)CCC1(O)c1ccccc1 (stereo not given)  2.61 nM
99. O=C(N/N=C/c1ccc[nH]1)c1ccccc1OCc1ccccc1Cl  2.65 nM
100. COc1ccc(C(=O)N2N=C(c3ccccc3)CC2(O)C(F)(F)F)cc1 (stereo not given)  2.7 nM
101. Cc1ccccc1Cn1c(Cc2ccccc2)nc2ccccc21  2.76 nM
102. Cc1cc(C)nc(SCc2nnc(SCC#N)n2-c2cccc(Cl)c2)n1  2.76 nM
103. C=CCC1(C)C(=O)N(c2ccccc2)c2ccccc21 (stereo not given)  2.93 nM
104. O=C(CN1CCN(Cc2ccccc2)CC1)Nc1ccccc1-c1ccccc1  2.97 nM
